Results as given in patent US20230382951A1, “BRAIN PENETRATING PEPTIDES” (BOARD OF REGENTS, THE UNIVERSITY OF TEXAS SYSTEM, priority 2020, published 2023).

System: hCMEC/D3 cells
Settings: third round of biopanning
Experimental: CX7C-presenting M13 phage biopanning against hCMEC/D3 cells. A M13 phage CX7C library was used to pan against established BBB model hCMEC/D3 in vitro to identify potential brain-penetrating peptides. hCMEC/D3 cells (CELLutions Biosystems Inc.) were cultured in EndoGRO medium (Millipore, #SCME004) on Collagen I (Fisher Scientific, #44310001) coated Culture Ware (150 μg/ml, coated for at least 1 h at 37° C.)^110. […] To establish the cell monolayer on the transwell plate setup, hCMEC/D3 cells (passage 27-30) were seeded on a pre-coated collagen I (100 μg/ml for 3 h) coated 12-well transwell plate (Corning, #3401) at a density of 1.5-2.0*10^5 cells/cm^2 for 12-15 days^49. Transepithelial electrical resistance measurements and permeability assay with small tracer molecule sodium fluorescein were used to monitor the tightness of hCMEC/D3 monolayer. Prior to biopanning, hCMEC/D3 cells were incubated in fetal bovine serum depleted medium for 1 h at 37° C., and then 10^11 plaque forming units (pfu) of M13 phage CX7C library (NEB, #E8120S) was added to the donor compartment of the transwell and incubated for 1 h at 37° C. […]
The NGS data from two replicates of MiSeq run were analyzed on Stampede, a supercomputer run on Texas Advanced Computing Center at UT-Austin. First, to confirm the sequence quality and trim the low-quality sequence reads, fastqc and fastx_toolkit were used on the dataset. […]

Substance: NAGHLSQ [Pep-1]
- frequency relative to second most frequent peptide Pep-2: approximately five-fold higher
